Measurements reported in ChEMBL document CHEMBL1201862, “PubChem BioAssay data set” (2004).
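Results reflect a 48-hour exposure of cells in 96-well plates to compound at five concentrations. At the GI50, growth is halved.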 Activity calls are given as the source filed them. Rule as the data show it: active = GI50 up to about 1.1 µM and inactive = higher.

Assays:
Test in all cases: inhibition of tumour cell growth, NCI panel, 48 h
DLD-1 = system: DLD-1
DMS-114 = system: DMS-114
HOP-18 = system: HOP-18
KM-20L2 = system: KM-20L2
LXFL 529 = system: LXFL 529
RXF 631 = system: RXF 631
SNB-78 = system: SNB-78
XF498 = system: XF498
DMS-273 = system: DMS-273

| SMILES | GI50 (DLD-1) | GI50 (DMS-114) | GI50 (HOP-18) | GI50 (KM-20L2) | GI50 (LXFL 529) | GI50 (RXF 631) | GI50 (SNB-78) | GI50 (XF498) | GI50 (DMS-273) |
| --- | --- | --- | --- | --- | --- | --- | --- | --- | --- |
| COc1ccc(-c2cc(O)c3ccc(F)cc3n2)cc1 | > 100 µM (inactive) | > 100 µM (inactive) | > 100 µM (inactive) | > 100 µM (inactive) | > 100 µM (inactive) | > 100 µM (inactive) | > 100 µM (inactive) | > 100 µM (inactive) |  |
| CCCCCC(O)(CCCCC)CCCCCCCCC1=C(O)C(=O)c2ccc(=O)[nH]c2C1=O | 5.37 µM (inactive) | 4.37 µM (inactive) |  | 13.1 µM (inactive) | 3.94 µM (inactive) | 10.3 µM (inactive) | 21.2 µM (inactive) | 3.6 µM (inactive) | 3.59 µM (inactive) |
| Cc1cc(NCCCCCCCCNc2cc(C)nc3cc(N(C)C)ccc23)c2ccc(N(C)C)cc2n1 |  | 1.39 µM (inactive) |  | 4.29 µM (inactive) | 1.69 µM (inactive) |  | 5.47 µM (inactive) | 1.98 µM (inactive) | 2.74 µM (inactive) |
| CCCCCCCCCCCCCCCCCCCCCC(=O)Nc1ccn(C2OC(CO)C(O)C2O)c(=O)n1 (stereo unspecified) | > 100 µM (inactive) | 1.04 µM (active) | > 100 µM (inactive) | > 100 µM (inactive) | > 100 µM (inactive) |  | > 100 µM (inactive) | > 100 µM (inactive) | 35.6 µM (inactive) |
| NC(=S)N1N=C2c3ccccc3CCC[C@H]2[C@@H]1c1ccccc1 | 3.42 µM (inactive) | 3.98 µM (inactive) |  | 2.01 µM (inactive) | 3.89 µM (inactive) |  | 5.77 µM (inactive) | 4.55 µM (inactive) | 0.721 µM (active) |
| O=C1CCCC2COc3ccc(O)c1c32 (stereo unspecified) | > 100 µM (inactive) | > 100 µM (inactive) |  | > 100 µM (inactive) |  | > 100 µM (inactive) | > 100 µM (inactive) |  | > 100 µM (inactive) |
| COc1ccccc1/C=C/C(=O)c1sc(-c2cccnc2)nc1C | > 100 µM (inactive) | > 100 µM (inactive) | 76.6 µM (inactive) | > 100 µM (inactive) |  |  | > 100 µM (inactive) |  | > 100 µM (inactive) |
| NNC(=O)C(=O)N/N=C1\CCC(=O)CC1C(=O)CCC(=O)Nc1ccc(Cl)cc1 (stereo unspecified) | > 100 µM (inactive) |  | 95.5 µM (inactive) | > 100 µM (inactive) | > 100 µM (inactive) |  | > 100 µM (inactive) |  | > 100 µM (inactive) |
| Clc1cccc2c1OCC1C(c3ccccc3)=NN(c3ccccc3)C21 (stereo unspecified) | > 100 µM (inactive) | 47.6 µM (inactive) | 24 µM (inactive) | > 100 µM (inactive) | 67.1 µM (inactive) | > 100 µM (inactive) | 72.9 µM (inactive) | > 100 µM (inactive) | 45.8 µM (inactive) |
| C/C(=C1/N=C(c2cc([N+](=O)[O-])ccc2Cl)N(c2ccc(Br)cc2)C1=O)c1ccc(N(CCC#N)CCC#N)cc1C | 15.9 µM (inactive) | 12.3 µM (inactive) | 76.9 µM (inactive) | 16.1 µM (inactive) | 8.11 µM (inactive) | > 100 µM (inactive) | 40.6 µM (inactive) | 4.71 µM (inactive) | 7.23 µM (inactive) |
| FC(F)(F)c1cccc(C2SCc3nc4ccccc4n32)c1 (stereo unspecified) | 54.2 µM (inactive) | 18.5 µM (inactive) |  |  | 27.8 µM (inactive) |  | > 100 µM (inactive) |  | 41.9 µM (inactive) |
| O=C(c1ccncc1)n1nc(-c2ccccc2)c(/N=N/c2ccccc2[N+](=O)[O-])c1-c1ccccc1 | 49.9 µM (inactive) | 21 µM (inactive) |  |  | 74.6 µM (inactive) | 38.5 µM (inactive) | 65.3 µM (inactive) | 33.5 µM (inactive) | > 100 µM (inactive) |
| C/C(CC(=O)Nc1cc(C)ccc1C)=N\NC(=O)c1ccncc1 | > 100 µM (inactive) |  |  | > 100 µM (inactive) | > 100 µM (inactive) | > 100 µM (inactive) | > 100 µM (inactive) |  |  |
| C[N+](C)(C)CC(CC(=O)[O-])C1CC1 (stereo unspecified) |  | > 100 µM (inactive) | > 100 µM (inactive) | > 100 µM (inactive) | > 100 µM (inactive) | > 100 µM (inactive) |  | > 100 µM (inactive) | > 100 µM (inactive) |
| O=c1c(-c2cccc3ccccc23)c(-c2cccc3ccccc23)c1=O | 3.28 µM (inactive) | 2.1 µM (inactive) | 39.8 µM (inactive) | 0.379 µM (active) | 3.05 µM (inactive) |  | 1.95 µM (inactive) | 2.27 µM (inactive) | 1.71 µM (inactive) |
| COC(=O)CC(NC(=O)OCc1ccccc1)C(C(=O)OCc1ccccc1)C1(C)OCCO1 (stereo unspecified) | 36.1 µM (inactive) | 23.6 µM (inactive) |  | 45.5 µM (inactive) | 18.8 µM (inactive) | 34.9 µM (inactive) |  | 15.8 µM (inactive) | 39.5 µM (inactive) |
| Cc1ccc(NC(=O)C(=O)CC(=O)C2CCOC2=O)c(C)c1 (stereo unspecified) | > 100 µM (inactive) | > 100 µM (inactive) | > 100 µM (inactive) | > 100 µM (inactive) | > 100 µM (inactive) | > 100 µM (inactive) | > 100 µM (inactive) | > 100 µM (inactive) | > 100 µM (inactive) |
| COc1cc(C(O)C(=O)c2cnc3cc([N+](=O)[O-])ccc3n2)ccc1O (stereo unspecified) | > 100 µM (inactive) | 49.9 µM (inactive) |  | 85.5 µM (inactive) | 74.1 µM (inactive) | > 100 µM (inactive) |  | > 100 µM (inactive) | > 100 µM (inactive) |
| COC1=C(C)C(=O)C2C(C1=O)C(c1ccc(OC)c(OC)c1)[C@H]2C (stereo partly specified) | > 100 µM (inactive) |  |  |  | > 100 µM (inactive) | > 100 µM (inactive) | > 100 µM (inactive) | > 100 µM (inactive) | > 100 µM (inactive) |
| C=C1C2CC(OC(C)=O)C3(C)C(c4ccoc4)OC(=O)[C@@H](O)[C@]13OC1C[C@H](OC(C)=O)C(C)(C)[C@H](C(O)C(=O)OC)[C@]12C (stereo partly specified) | > 100 µM (inactive) | > 100 µM (inactive) | > 100 µM (inactive) | > 100 µM (inactive) | > 100 µM (inactive) |  | > 100 µM (inactive) |  | > 100 µM (inactive) |
